Results taken from article PMC4405350, “From Broad-Spectrum Biocides to Quorum Sensing Disruptors and Mussel Repellents: Antifouling Profile of Alkyl Triphenylphosphonium Salts” (PLoS ONE, 2015).
pIC50: −log10 of the molar value.

What was measured:
Artemia salina nauplii = assay: in vivo; settings: instar I nauplii, 24 h, 28 °C
Method: (§1) All the biological assays were run by triplicate. […] For the active products, serial dilutions were performed to calculate the half-maximal inhibitory concentrations (IC50) or the minimal inhibitory concentrations (MIC). Unless otherwise stated, the test concentrations were 100, 50, 25, 10, 5, 2.5, 1, 0.5 and 0.1 μM. Dose-response curves were adjusted with GraphPad Prism 5 software using a four-parameter non-linear regression model.
Artemia salina cysts (INVE Aquaculture, Ghent, Belgium) were hatched in brackish water (30 ‰ salinity) at 28 °C with aeration and under constant light. Newly hatched instar I nauplii were harvested for bioassays. Tests were conducted in 96-well plates (15±5 nauplii per well, test volume = 200 μl). The number of dead and alive individuals was recorded after 24 h of incubation at 28 °C and 24-hour photoperiod.

[1] = test system: Gayralia oxysperma spores; assay: Macroalgal spore germination inhibition; format: cell-based; settings: 6 days, 19±1 °C
Method: as §1
To evaluate the effect of the phosphonium salts on the germination of macroalgal spores, Gayralia oxysperma (Kützing) K.L.Vinogradova was selected as model organism. G. oxysperma (Ulotrichales, Chlorophyta) is a cosmopolitan member of the Ulvophyceae. Unlike Ulva species, which produce biflagellate male and female gametes, as well as quadriflagellate spores, G. oxysperma only produces biflagellate spores. This is an advantage as bioassays can be conducted straightforwardly without the need to distinguish between gamete-producing and zoospore-producing plants. […] Fresh fertile fragments were selected and placed in Petri dishes. Spores were then released in Von Stosch Solution (VSS) by the osmotic method. Bioassays were conducted in flat-bottom 96-well plates as described by Chambers and co-workers, with slight modifications. Each well was filled with 50 μl of the appropriate dilution of the products in VSS to which 50 μl of spore inoculum (ca. 2 x 10^5 spores ml^-1) were added. Plates were incubated at 19±1 °C for 6 days. After the incubation time, the bottom of each well was examined for the presence of germinated spores with an inverted microscope. A spore was considered as germinated when the germ tube was visible. The MIC was recorded as the lowest concentration inhibiting spore germination.

[2] = test system: Shewanella algae CECT 5021; assay: Marine bacteria growth inhibition (broth microdilution, OD625); format: cell-based; settings: Shewanella algae, CECT5021; growth inhibition, 24 h, 30 °C, three replicates; read-out: IC50 S. algae
Method: as §1
(§2) Growth inhibition was assessed in Marine Broth (Conda) according to CLSI guidelines for broth microdilution susceptibility testing. The incubation time was 24 h and the incubation temperature was 30 °C.

[3] = test system: Vibrio alginolyticus CECT 521; assay: as above; format: cell-based; settings: Vibrio alginolyticus, CECT521; growth inhibition, 24 h, 30 °C, three replicates; read-out: IC50 V. alginolyticus
Method: as §1, §2

Cobetia marina CECT 4278 = assay: as above; format: cell-based; settings: Cobetia marina, CECT4278; growth inhibition, 24 h, 30 °C, three replicates; read-out: IC50 C. marina
Method: as §1, §2

[4] = test system: Pseudoalteromonas atlantica CECT 579; assay: as above; format: cell-based; settings: Pseudoalteromonas atlantica, CECT579; growth inhibition, 24 h, 30 °C, three replicates; read-out: IC50 P. atlantica
Method: as §1, §2

[5] = test system: Vibrio anguillarum CECT 4347; assay: as above; format: cell-based; settings: Vibrio anguillarum, CECT4347; growth inhibition, 24 h, 30 °C, three replicates; read-out: IC50 V. anguillarum
Method: as §1, §2

[6] = test system: Cellulophaga lytica CECT 5014; assay: as above; format: cell-based; settings: Cellulophaga lytica, CECT5014; growth inhibition, 24 h, 30 °C, three replicates; read-out: IC50 C. lytica
Method: as §1, §2

C. violaceum CVO26 = C. violaceum CVO26 growth inhibition (OD625); format: cell-based; settings: Chromobacterium violaceum, CVO26, 18 h, read-out: IC50 (Growth inhibition)
Method: The reporter strain C. violaceum CVO26 (CECT 5999) was used to screen the ability of the products to interfere with violacein production, a QS-regulated phenotype. C. violaceum CVO26 is a mini-Tn5 mutant that depends on an exogenous source of autoinducer (AI) (N-hexanoyl homoserine lactone, HHL) for violacein production. C. violaceum CVO26 was cultured in LB broth (Sigma-Aldrich) supplemented with 25 μg ml^-1 kanamycin. Inocula were prepared by dilution (1:100) of an overnight culture of the reporter strain [49]. One hundred microliters of inoculum with HHL (Sigma-Aldrich, 6 μM) or without the AI were added to 96-well plates containing 100 μl of the appropriate dilutions of the test products in LB. Thus, two sets of plates were prepared. One set of plates (without HHL) was used to evaluate the effect of the products on bacterial growth, whereas the other set of plates (with HHL) was used to evaluate their effect on violacein production. Both sets of plates were incubated at 30 °C with agitation (150 rpm) for 18 h.
Growth inhibition was quantified in the first batch of plates by re-suspending bacterial pellets and measuring the OD625. From the second batch of plates violacein was extracted and quantified. Briefly, the plates were dried overnight (60 °C) and violacein was re-solubilized by the addition of 200 μl of DMSO. The plates were shaken for 3 h and then the OD590 was determined.
Indeed, the inhibitions observed in violacein production for long alkyl chains (10–18, 20) were clearly correlated to the biocidal effect exerted by these compounds, with ‘therapeutic ratios’ (IC50 for growth inhibition/IC50 for violacein inhibition) around 1, in general (Table 2). Note that, as the length of the hydrocarbon chain becomes shorter, this ratio increased (8–9). […] To evaluate these compounds in further detail, […] stock solutions were prepared […] to avoid the use of high concentrations of DMSO in the bioassays. […] Serial two-fold dilutions (500–3.9 μM) were assayed. Consequently, the highest amount of DMSO used in the assay was 0.25% (v/v). […] Growth inhibitory effects are only observed at 500 μM, particularly for compound 7 (Fig 6D).

Compound | IC50 A. salina (LC50) (Artemia salina nauplii) | MIC G. oxysperma (lowest concentration inhibiting spore germination) [1] | pIC50 [2] | pIC50 [3] | pIC50 (Cobetia marina CECT 4278) | pIC50 [4] | pIC50 [5] | pIC50 [6] | pIC50 (C. violaceum CVO26)
c1ccc([P+](CCCCCCCCCCCC[P+](c2ccccc2)(c2ccccc2)c2ccccc2)(c2ccccc2)c2ccccc2)cc1 [Compound 20] | 3.0 µM | 5 µM | 5.66 | 4.03 | 5.14 | 6.10 | 5.10 | 5.96 | 4.89
BrC(Br)[P+](c1ccccc1)(c1ccccc1)c1ccccc1 [Compound 1] | >100 µM | 100 µM | < 4.00 | < 4.00 | < 4.00 | < 4.00 | < 4.00 | < 4.00 | < 4.00
CCCCCCCCCCC[P+](c1ccccc1)(c1ccccc1)c1ccccc1 [Compound 11] | 1.8 µM | 50 µM | 5.27 | 4.48 | 5.21 | 5.52 | 4.77 | 5.96 | 5.31
